Reference: US12502400B2, “Method of preventing of systemic-to-pulmonary-artery shunt thrombosis” (Chiesi Farmaceutici S.p.A., priority 2017, dated 2025)
Like-named read-outs stand apart in the source and are kept apart here.

Legend:
[1] = early institution within 12 hours of surgery; cited from earlier work
[2] = tested on: platelets in PPACK-treated whole blood; assay: Multichannel microfluidic device, platelet accumulation on collagen under flow; type: cell-based; conditions: Homo sapiens, read-out: effective IC50 (surface fluorescence at 300 s)
Description: Microfluidic devices with 8 individual channels (250 μm wide×60 μm-high) were fabricated in polydimethylsiloxane (PDMS) as previously described. The device was reversibly vacuum-sealed to a glass slide with its flow channels aligned perpendicularly to a patterned type 1 collagen surface (1 mg/ml). To visualize platelet accumulation over time, an Alexa Fluor 488 conjugated, non-function blocking mouse anti-human CD61 (GPIIb/IIIa) antibody was added (1:50 ratio) 7 min prior to performing experiments (0.125 μg/ml final concentration).
Whole blood from neonates with single ventricle pathology or healthy adults was perfused over the prothrombotic surface at an initial wall shear rate of 100 s^−1 by withdrawal from a single outlet into a syringe pump (Harvard Apparatus Pump 11 Elite, Holliston, MA). Platelet accumulation was visualized (10× objective lens) using an automated inverted microscope system (DMI6000, Leica) equipped with a CCD camera (DFC365FX, Leica). A custom stage insert held three microfluidic devices allowing replicate testing of four conditions. Images were captured in 30 s intervals for a total of 5 min. Platelet fluorescence intensities, which are directly proportional to the total platelet mass were measured and analyzed with Image J software (Image J; NIH, Bethesda, MD). The center 65% of the prothrombotic region was selected for analysis to avoid edge effects. […]

[3] = cited from earlier work
platelet aggregation = assay: Phase 1 PK/PD clinical trial in post-operative neonates with CHD, LTA and microfluidics; type: in vivo, human; conditions: infusion 0.5 or 0.25 μg/kg/min for one hour; post-operative neonates with shunt
From the text: FIG. 7. Pharmacodynamic properties of cangrelor administered to neonates with CHD in the early post-operative period. A phase 1 clinical trial is currently being conducted to assess the drug plasma levels and effects on platelet aggregation using LTA and microfluidics. […] B, microfluidic results under the same conditions as outlined for LTA.

[4] = tested on: human platelet thrombus formation; assay: Human platelet thrombus formation in laser-injured arterioles of avatar mice; type: in vivo, VWFHA1 mutant mice; conditions: for Contrast estimate (mean difference in thrombus size pre- and post-administration): linear mixed model; for platelet accumulation at sites of arteriole injury: platelets from neonates and older pediatric CHD patients
Description: Administration of anesthesia, insertion of venous and arterial catheters, fluorescent labeling of human platelets, and surgical preparation of the cremaster muscle in 12 week old male VWF HA1 mice have been previously described.
Human platelets (700K/μL) were continuously infused (25 μl/min) through a catheter placed in the ipsilateral femoral artery 2 min prior to and during laser-induced injury to ensure a level of circulating cells equivalent to humans.^33 Injury to the vessel wall of arterioles (40-65 μm diameter) was performed with a pulsed nitrogen dye laser applied through a 20× water-immersion Olympus objective. Human platelet-vessel wall interactions were visualized by fluorescence microscopy using a system equipped with a Yokogawa CSU-22 spinning disk confocal scanner, iXON EM camera, and 488-nm laser line (Revolution XD, Andor Technology, South Windsor, CT) to detect Calcein-AM-labeled cells, respectively. The extent of thrombus formation was assessed for 3 min after injury and the maximal area (μm^2) of coverage determined by off-line analysis (ImagePro Plus, Media Cybernetics, Bethesda, MD).
A minimum of 5 mice per patient group were studied (2 and 4 arterial segments pre and post-cangrelor per mouse, respectively).
To compare mean thrombus areas between different treatment groups, we fit linear mixed models with random intercepts for each study animal. Linear mixed models permit comparison of mean differences between treatment groups while also considering the effect of the clustering of the data on the SEs resulting from multiple measurements obtained from each mouse used in intravital studies. In the case of platelet aggregation studies, values are presented as mean±SEM. A 2-tailed Student t test was used for comparisons between control conditions and treatments. Differences with values of P<0.05 were considered statistically significant.

[5] = adults with coronary artery disease, cited from earlier work
purified platelets = assay: ADP-induced platelet aggregation by light transmission aggregometry (LTA), EC50 for ADP; type: cell-based, human; conditions: LTA with fibrinogen
Description: Purified platelets were suspended to a final concentration of 400,000/μl in platelet buffer containing 145 mM NaCl, 10 mM Hepes, 0.5 mM Na2HPO4, 5 mM KCl, 2 mM MgCl2, 1 mM CaCl2), 0.10% glucose, pH 7.4. […] Human fibrinogen (final concentration 200 μg/ml) was added to the platelet suspensions just prior to activation. Aggregation was assessed using a Chronolog Lumi-Aggregometer (model 540 VS, Chronolog, Havertown, PA) and permitted to proceed for 6 min after the addition of agonist. The results are reported as maximum percent change in light transmittance from baseline with platelet buffer used as a reference.
We next determine the functional response of platelets from neonates as well as older patients with congenital heart disease to ADP stimulation. This was accomplished by calculating EC50 values for the agonist using isolated platelets in fibrinogen-supplemented buffer.

integrin αIIbβ3 = target: T1, integrin αIIbβ3 (Homo sapiens, UniProt P05106+P08514); assay: ADP-induced firm adhesion of platelets to surface-immobilized VWF in flow; type: cell-based; conditions: platelets from pediatric CHD patients or healthy adults
T1 construct: the platelet integrin receptor αIIbβ3 that stabilizes adhesion by engaging with ligands such as VWF; endogenous in cells; host or cells: platelets from pediatric patients with CHD or healthy adults
Description: A parallel-plate flow chamber was used to assess platelet accumulation on surface-immobilized plasma VWF at a wall shear rate of 1,600s-1.29, 31 In brief, a polyclonal anti-VWF antibody was absorbed overnight (4° C.) to a six-well tissue culture plate. Subsequently, the plate was washed and nonspecific interactions blocked by the addition of TBS containing 3% BSA, pH 7.4 (30 min, 37° C.). Human or murine (VWF^HA1) plasma obtained from heparinized whole blood was added and the plates placed at 37° C. for an additional hour prior to use. Citrated whole blood was then perfused over the reactive substrate for 3 minutes, followed by the addition of platelet buffer lacking CaCl2 for 1 min. The number of platelets attached per unit area was determined by offline analysis (ImagePro Plus, Media Cybernetics, Bethesda, MD) of recorded digital images. For GPIbα inhibition studies, mAb 6D1 (10 μg/ml) was added to anticoagulated human blood for 10 min before use.
Although GPIbα initiates platelet deposition at arterial shear rates, this adhesive interaction is labile in nature permitting platelets to translocate in response to forces generated by flowing blood. Ultimately it is the platelet integrin receptor αIIbβ3 that stabilizes adhesion by engaging with ligands such as VWF in response to ADP and/or thrombin.

## CC(=O)Oc1ccccc1C(=O)O [aspirin]
[1]
  risk of shunt thrombosis and death: reduced the risk of shunt thrombosis and death

## CSCCNc1nc(SCCC(F)(F)F)nc2c1ncn2[C@@H]1O[C@H](COP(=O)(O)OP(=O)(O)C(Cl)(Cl)P(=O)(O)O)[C@@H](O)[C@H]1O [cangrelor]
[2]; whole blood from healthy adults
  IC50: 0.00095 µM
[2]; whole blood from neonates with CHD (single ventricle physiology)
  IC50: 0.00069 µM
[3]; after cessation of infusion of a supratherapeutic dose
  restoration of hemostasis, as assessed by bleeding time: ≤ 10 min
[3]; after cessation of infusion
  full platelet function recovery as determined by response to ADP: ≤ 60 min
Platelet aggregation
  effect on platelet aggregation assessed by LTA and microfluidics: efficacy and rapid reversibility
[4]; platelets from adults
  Contrast estimate (mean difference in thrombus size pre- and post-administration): 3,501 μm2
[4]; platelets from age group 0-28 days
  Contrast estimate (mean difference in thrombus size pre- and post-administration): 2,261 μm2
[4]; platelets from age group 1-10 years
  Contrast estimate (mean difference in thrombus size pre- and post-administration): 3,314 μm2
[4]; platelets from age group 11-18 years
  Contrast estimate (mean difference in thrombus size pre- and post-administration): 3,475 μm2
[4]; platelets from neonates and older CHD patients, all cases, doses recommended for PCI, P<0.0001
  reduced thrombus size: > 45%
[4]
  platelet accumulation at sites of arteriole injury: did not completely prevent platelet accumulation
[4]; platelets from pediatric cardiac patients, 30 μg/kg bolus then 4 μg/kg/min infusion, P<0.0001
  reduction in thrombus size: ~45%
[5]; PCI
  risk of severe bleeding: without significantly increasing the risk of severe bleeding
[5]
  ischemic events during PCI: significantly reduce ischemic events

## Nc1ncnc2c1ncn2[C@@H]1O[C@H](COP(=O)(O)OP(=O)(O)O)[C@@H](O)[C@H]1O [ADP]
Purified platelets; platelets from CHD patients 0-28 days
  EC50: 3.4 ± 0.1 µM
Purified platelets; platelets from CHD patients 1-10 years
  EC50: 2.9 ± 0.1 µM
Purified platelets; platelets from CHD patients 11-18 years
  EC50: 3.2 ± 0.2 µM
Purified platelets; platelets from healthy adults
  EC50: 3.2 ± 0.2 µM

## abciximab: function blocking antibody to integrin αIIbβ3
Integrin αIIbβ3
  firm adhesion of platelets to surface-immobilized VWF in response to ADP: prevent the firm adhesion
[4]
  platelet accumulation at sites of arteriole injury: nearly abrogated platelet-vessel wall interactions
[4]; platelets from pediatric cardiac patients, laser-injured arterioles, P<0.0001
  abrogated platelet accumulation: > 90%
